Experimental data taken from patent US4124703A, “Luliberin analogs” (Imperial Chemical Industries Limited, priority 1976, dated 1978).
Non-standard residues stand in square brackets, D forms with d. Residues, ends and D or L forms follow the SMILES beside them. pGlu = O=C1CC[C@@H](C(=O)O)N1; azaGly = NNC(=O)O

What was measured:
luliberin = settings: literature: Coy et al., Molecular and Cellular Endocrinology, 1976, 5, 201-208; cited from earlier work
[1] = overt toxic effects at multiples of the minimum active dose; assay type: in vivo; settings: dosed at 20 times its minimum effective dose

| Molecule | luliberin antagonist properties (luliberin) | overt toxic effects [1] |
| --- | --- | --- |
| [D-Phe^2, D-Phe^6 ] luliberin | has luliberin antagonist properties | – |
| CC(C)C[C@H](NC(=O)[C@@H](Cc1ccccc1)NC(=O)[C@H](Cc1ccc(O)cc1)NC(=O)[C@H](CO)NC(=O)[C@H](Cc1c[nH]c2ccccc12)NC(=O)[C@@H](Cc1ccccc1)NC(=O)[C@@H]1CCC(=O)N1)C(=O)N[C@@H](CCCNC(=N)N)C(=O)N1CCC[C@H]1C(=O)NNC(N)=O [Example 1, L-pyroglutamyl-D-phenylalanyl-L-tryptophyl-L-seryl-L-tyrosyl-D-phenylalanyl-L-leucyl-L-arginyl-L-prolylazaglycine amide] ([pGlu][dF]WSY[dF]LRP[azaGly]-NH2) | – | no overt toxic effects |
